These results are taken from patent publication US20120190703A1, “SALTS OF 13A-(S)DESOXYTYLOPHORININE, PREPARATION METHODS AND PHARMACEUTICAL COMPOSITIONS AND USES THEREOF” (priority 2009, published 2012).

“And” between values parts separate entries of the source, which are not always exact repeats. Equal values may be shown once. Where a name gives a salt, the structure may show the parent alone. Read-outs that look alike come from different tables or passages of the source. Marks after values point to notes of the source that are not given here.

The test system of data set [1] is H22 tumor-bearing mice. The source says: To determine the pharmacodynamic characters of 13a-(S)-deoxytylophorinine and its salts, the impact of these compounds to the tumor growth in H22 tumor-bearing mice was surveyed.
Male Kunming mice were obtained from the Laboratory Animal Center, Academy of Military Medical Science. Body weight 18˜22 g. 6 animals per group, totally 10 groups, 60 animals.
(+)-13a-(S)-deoxytylophorinine, (+)-13a-(S)-deoxytylophorinine Tartrate, (+)-13a-(S)-deoxytylophorinine Maleate, (+)-13a-(S)-deoxytylophorinine Citrate, Cytoxane (CTX) as positive control.
(+)-13a-(S)-deoxytylophorinine was administered at high dose (5 mg/kg) and low dose (2.5 mg/kg). Three (+)-13a-(S)-deoxytylophorinine salts were administered at high dose and low dose as equal moles with their prototype (Tartrate: 7.05 mg/kg, 3.53 mg/kg; Malate: 6.60 mg/kg, 3.30 mg/kg; Citrate: 7.90 mg/kg, 3.95 mg/kg).
Animals were reared in SPF grade circumstance to be observed for 24 h. The tumor cells liquid which resuscitated in abdominal cavity of KM mice was diluted with aseptic normal saline at 1:3 ratio. The resulting liquid was inoculated subcutaneously at forelimb with 0.2 mL every animal. After the injection over, the animals were divided to […] with 6 animals per group.
Four experimental samples were intragastric administered once daily 24 h after inoculation. The positive control CTX was intraperitoneal injected once daily. The animal body weight was recorded every day.

Data set [2] relates to H22 tumor-bearing mice. As for the experimental part:
To observe the impact of 13a-(S)-deoxytylophorinine Sulfate: on the tumor growth of H22 tumor-bearing mice.
Male Kunming mice were obtained from the Laboratory Animal Center, Academy of Military Medical Science. Body weight 18˜22 g.
(+)-13a-(S)-deoxytylophorinine Sulfate, Cytoxane (CTX) as positive control.
All the samples were administered orally. o.d. 0.2 ml/10 g.
(+)-13a-(S)-deoxytylophorinine Sulfate was administered at five dose groups: 3 mg/kg, 4 mg/kg, 5 mg/kg, 6 mg/kg and 8 mg/kg.
Animals were reared in SPF grade circumstance to be observed for 24 h. The tumor cells liquid which resuscitated in abdominal cavity of KM species mice was diluted with aseptic normal saline at 1:3 ratio. The resulting liquid was inoculated subcutaneously at forelimb with 0.2 mL every animal. After the injection over, the animals were divided to 13 groups. Experimental samples were administered 24 h after inoculation.
This is another data set of the same source.

The nature of a further data set: Solubility in water. Conditions: for solubility: water. It is filed as physicochemical.
Data set [3] in a line: Drug distribution in brain tissue after oral administration in mice. In kind it is in vivo, ICR mice. Conditions: for Brain contents of (+)-13a-(S)-deoxytylophorinine (ng/ml), Mean ± SD / Brain contents of (+)-13a-(S)-deoxytylophorinine (ng/ml), individual animals 1-3: 6 mg/kg oral. The method, then:
(§1) Male ICR mice. Body weight 18˜22 g.
Plasma was isolated by centrifugalization. […] 25% tissue homogenate was prepared with normal saline addition.
The drug concentration-time data in brain tissue after administered orally of (+)-13a-(S)-deoxytylophorinine tartrate, maleate and citrate were represented in Table 8˜10 and FIG. 6˜8. […] (+)-13a-(S)-deoxytylophorinine could be detected in 5 min. The peak concentration was reached after 15 min, and the compound still can be detected after 2 h after administration.

The nature of data set [4]: Plasma pharmacokinetics after oral administration in mice. As for the experimental part: To determine the pharmacokinetic characters of 13a-(S)-deoxytylophorinine and its salts, the studies about plasma pharmacokinetics and the character of distribution in brain were pursued.
as §1
(+)-13a-(S)-deoxytylophorinine Tartrate, (+)-13a-(S)-deoxytylophorinine Maleate, (+)-13a-(S)-deoxytylophorinine Citrate. All were dissolved in distilled water as 0.6 mg/ml solution before experiment progressed.
72 mice were divided to 3 groups with 24 animals per group, fasting for 16 h and drinking water freely. […] Plasma was isolated by centrifugalization. After the salts were administered orally, the brain tissues of mice were collected at 5 min, 15 min, 2 h time points. 25% tissue homogenate was prepared with normal saline addition. 200 μL of homogenate and plasma were added isovolumic MeCN to precipitate protein. 5 μL of clear supernatant was analyzed by LC/MS/MS.
(+)-13a-(S)-deoxytylophorinine was dissolved in DMSO and then diluted with MeOH with concentration 10, 50, 100, 500, 1000 and 2500 ng/ml respectively. 10 μl of standard solutions of (+)-13a-(S)-deoxytylophorinine with different concentration above were added to 200 μl of blank plasma sequently to adjust the concentration to 0.5, 2.5, 5, 25, 50, 125 ng/ml respectively. MeCN was added to the solution to precipitate protein, and 5 μl of result clear supernatant was analyzed with LC/MS/MS. Linear regression was ran with the peak area of (+)-13a-(S)-deoxytylophorinine as ordinate and the concentrations as abscissa.

[5] abbreviates: 6 mg/kg oral, mice, Time (min) 0.5.
Where [6] appears, read: 6 mg/kg oral, mice, Time (min) 1.
[7] abbreviates: male, ICR, mouse, plasma, po, 6 mg/kg.
[8] abbreviates: high dose × 7 d, intragastric once daily, equal moles: prototype 5.0, tartrate 7.05, maleate 6.60, citrate 7.90 mg/kg.
Setting [9] is: low dose × 7 d, intragastric once daily, equal moles: prototype 2.5, tartrate 3.53, maleate 3.30, citrate 3.95 mg/kg.

Consider `O=P1(N(CCCl)CCCl)NCCCO1` (stereo not drawn) [CTX, Cytoxan, reference compound], for which, in the data set on H22 tumor-bearing mice [1] (100 mg/kg × 1, i.p.), the “Animal No. (Initial/Final)” value is reported as 6/6, the “Body Weight(g) Final” value was 23.77 ± 1.38 g, the “Body Weight(g) Initial” value worked out at 21.33 ± 1.63 g⁻¹ and the “Inhibition (%)” value is given as 48.47* %. Moreover, in the data set on H22 tumor-bearing mice [1] (100 mg/kg × 1, i.p.), the “Tumor Weight (g, mean ± SD)” value is on record as 0.59 ± 0.26 g. In addition, in the data set on H22 tumor-bearing mice [2] (100 mg/kg × 1, i.p.), the “Animal No. (Initial/Final)” value is listed as 6/6, the “Body Weight(g) Final” value amounted to 25.00 ± 2.37 g, the “Body Weight(g) Initial” value was found to be 20.67 ± 2.07 g⁻¹ and the “Inhibition (%)” value is recorded as 94.76** %. Besides, in the data set on H22 tumor-bearing mice [2] (100 mg/kg × 1, i.p.), the “Tumor Weight (g, mean ± SD)” value was found to be 0.07 ± 0.04 g.
Usually solubility stands for the concentration that dissolves in the medium under given conditions. A higher solubility goes with much dissolved substance. Compound `COc1ccc2c3c(c4cc(OC)c(OC)cc4c2c1)CN1CCC[C@H]1C3` [Sulfate, (+)-13a-(S)-deoxytylophorinine Sulfate] gave a solubility in the data set “Solubility in water” of 200 mg/mL. The “Animal No. (Initial/Final)” value in the data set with H22 tumor-bearing mice [2] (3 mg/kg × 7, oral (o.p.)) is recorded as 6/6; with H22 tumor-bearing mice [2] (4 mg/kg × 7, oral (o.p.)), 6/6; with H22 tumor-bearing mice [2] (5 mg/kg × 7, oral (o.p.)) it was 6/6; with H22 tumor-bearing mice [2] (6 mg/kg × 6, oral (o.p.)), 6/3; in the data set on H22 tumor-bearing mice [2] (8 mg/kg × 6, oral (o.p.)) it was 6/0. The “Body Weight(g) Final” value with H22 tumor-bearing mice [2] (3 mg/kg × 7, oral (o.p.)) was 26.83 ± 2.56 g; in the data set on H22 tumor-bearing mice [2] (4 mg/kg × 7, oral (o.p.)), 22.83 ± 2.40 g; in the data set with H22 tumor-bearing mice [2] (5 mg/kg × 7, oral (o.p.)) it was 22.17 ± 5.31 g; with H22 tumor-bearing mice [2] (6 mg/kg × 6, oral (o.p.)), 15.33 ± 3.21 g. The “Body Weight(g) Initial” value in the data set with H22 tumor-bearing mice [2] (3 mg/kg × 7, oral (o.p.)) came to 20.67 ± 0.52 g⁻¹; with H22 tumor-bearing mice [2] (4 mg/kg × 7, oral (o.p.)), 20.00 ± 1.26 g⁻¹; with H22 tumor-bearing mice [2] (5 mg/kg × 7, oral (o.p.)), 19.83 ± 1.72 g⁻¹; in the data set with H22 tumor-bearing mice [2] (6 mg/kg × 6, oral (o.p.)) it was 19.83 ± 1.72 g⁻¹; with H22 tumor-bearing mice [2] (8 mg/kg × 6, oral (o.p.)), 20.67 ± 1.03 g⁻¹. Further, the “Inhibition (%)” value in the data set with H22 tumor-bearing mice [2] (3 mg/kg × 7, oral (o.p.)) is listed as 22.49* %; in the data set on H22 tumor-bearing mice [2] (4 mg/kg × 7, oral (o.p.)), 52.51* %; in the data set on H22 tumor-bearing mice [2] (5 mg/kg × 7, oral (o.p.)), 41.75* %; in the data set with H22 tumor-bearing mice [2] (6 mg/kg × 6, oral (o.p.)), 68.52** %; in the data set with H22 tumor-bearing mice [2] (8 mg/kg × 6, oral (o.p.)), 88.49** %. Besides, the “Tumor Weight (g, mean ± SD)” value with H22 tumor-bearing mice [2] (3 mg/kg × 7, oral (o.p.)) came to 0.98 ± 0.21 g; in the data set with H22 tumor-bearing mice [2] (4 mg/kg × 7, oral (o.p.)) it was 0.60 ± 0.32 g; with H22 tumor-bearing mice [2] (5 mg/kg × 7, oral (o.p.)), 0.73 ± 0.39 g; with H22 tumor-bearing mice [2] (6 mg/kg × 6, oral (o.p.)), 0.40 ± 0.24 g; in the data set with H22 tumor-bearing mice [2] (8 mg/kg × 6, oral (o.p.)), 0.15 ± 0.04 g. The “Deaths of mice (table note)” value is on record as “After (+)-13a-(S)-deoxytylophorinine Sulfate (6 mg/kg) was administered orally, one of mice died on sixth day, two of mice died on seventh day. Stop administion” in the data set on H22 tumor-bearing mice [2] (6 mg/kg orally) and “After (+)-13a-(S)-deoxytylophorinine Sulfate (8 mg/kg) was administered orally, one of mice died on sixth day, two of mice died on seventh day. Stop administion” with H22 tumor-bearing mice [2] (8 mg/kg orally).
As usually defined, the AUC(0-inf) is the area under the concentration-time curve extrapolated to infinity. Read a low AUC(0-inf) as low exposure. By AUC(0-t) is commonly meant exposure summed from dosing to a finite time, without extrapolation to infinity. Higher therefore signals high exposure. Usually Cmax stands for the highest concentration seen after dosing. By MRT inf is commonly meant a mean duration of stay, worked out from the concentration-time curve. One may read the MRT last as a mean duration of stay, worked out from the concentration-time curve. A word on the Tmax: it is the time at which the peak concentration occurs. With `COc1ccc2c3c(c4cc(OC)c(OC)cc4c2c1)CN1CCC[C@H]1C3.O=C(O)CC(O)(CC(=O)O)C(=O)O` [Citrate, (+)-13a-(S)-deoxytylophorinine Citrate], in data set [3] (Time (min) 5), the “Brain contents of (+)-13a-(S)-deoxytylophorinine (ng/ml), Mean ± SD” value (“Brain contents … Mean ± SD” below) turned out to be 23.6 ± 12.7 ng/mL; the “Brain contents of (+)-13a-(S)-deoxytylophorinine (ng/ml), individual animals 1-3” value (“Brain contents … individual animals 1-3” below) was 22.0 ng/mL and 37.1 ng/mL and 11.8 ng/mL. In addition, in data set [3] (Time (min) 15), the “Brain contents … Mean ± SD” value is 87.3 ± 50.1 ng/mL; the “Brain contents … individual animals 1-3” value was 84.8 ng/mL and 138.7 ng/mL and 38.5 ng/mL. Besides, in data set [3] (Time (min) 120), the “Brain contents … Mean ± SD” value worked out at 48.7 ± 14.1 ng/mL; the “Brain contents … individual animals 1-3” value was 37.0 ng/mL and 44.8 ng/mL and 64.4 ng/mL. In addition, the “Drug contents in brain compared with prototype” value in data set [3] (oral, 3 time points) is recorded as “lower than its prototype”. In data set [4] (6 mg/kg oral, mice), the “Peak concentration in blood” value worked out at 20.1 ± 12.2 ng/mL and the “Time of peak concentration in blood” value is 15 min. Further, the t½z in data set [4] (6 mg/kg oral, mice, plasma, non-compartment model) is recorded as 0.86 h. In data set [4] (setting [5]), the “Blood concentration of (+)-13a-(S)-deoxytylophorinine (ng/ml), Mean ± SD” value was 12.6 ± 6.5 ng/mL; the “Blood concentration of (+)-13a-(S)-deoxytylophorinine (ng/ml), individual animals 1-3” value is 20.1 ng/mL and 8.4 ng/mL and 9.3 ng/mL. Besides, in data set [4] (setting [6]), the “Blood concentration of (+)-13a-(S)-deoxytylophorinine (ng/ml), Mean ± SD” value amounted to 8.4 ± 2.9 ng/mL; the “Blood concentration of (+)-13a-(S)-deoxytylophorinine (ng/ml), individual animals 1-3” value was 11.2 ng/mL and 5.4 ng/mL and 8.5 ng/mL. Further, in data set [4] (setting [7]), the AUC(0-inf) was 33.1 ng·h/mL, the AUC(0-t) amounted to 32.7 ng·h/mL, the peak level (Cmax) was 20.1 ng/mL and the MRT inf was 2.29 h. In data set [4] (setting [7]), the MRT last turned out to be 1.73 h and the Tmax was 0.25 h. Also, in the data set “Solubility in water”, the “Solubility in water (words)” value is reported as “soluble in water” and the solubility amounted to 33 mg/mL. Further, in the data set on H22 tumor-bearing mice [1] (setting [8]), the “Animal No. (Initial/Final)” value is 6/5, the “Body Weight(g) Final” value was determined as 14.27 ± 2.61 g, the “Body Weight(g) Initial” value turned out to be 22.00 ± 1.55 g⁻¹ and the “Inhibition (%)” value is given as 80.44** %. In addition, the “Tumor Weight (g, mean ± SD)” value in the data set with H22 tumor-bearing mice [1] (setting [8]) came out at 0.22 ± 0.13 g. In the data set with H22 tumor-bearing mice [1] (setting [9]), the “Animal No. (Initial/Final)” value is 6/6, the “Body Weight(g) Final” value stood at 21.01 ± 2.04 g, the “Body Weight(g) Initial” value was 21.83 ± 0.75 g⁻¹ and the “Inhibition (%)” value is listed as 46.87* %. Besides, the “Tumor Weight (g, mean ± SD)” value in the data set on H22 tumor-bearing mice [1] (setting [9]) came to 0.61 ± 0.35 g.
